Test results as given in EP2712863B1, “Novel inhibitors of bacterial biofilms and related methods” (Sequoia Sciences, Inc., priority 2012, dated 2014).
In brackets after ≈: the same amount, converted by molar mass.

Assays:
[1] = tested on: P. aeruginosa; assay: Biofilm growth assay (spreading biofilm on semi-solid agar); type: cell-based; settings: Pseudomonas aeruginosa; Table 3; concentration that reduces the area of the spreading biofilm by >= 85%; read-out: P. aeruginosa
Source text: (§1) "Biofilm Growth Assay" refers to an assay performed on semi-solid agar surface where the bacteria collectively move out from an inoculation point. To those skilled in the art, the act of bacteria collectively moving out from an inoculation point on a semi-solid surface may be referred to as swarming or a spreading biofilm. (Anderson, et al Microbiology, 2003, 149, 37-46; Daniels, et al. FEMS Microbiology Reviews, 2004, 28, 261-289). The procedure to perform this assay is described in detail in the Examples. This type of surface motility by bacteria has been reported in the literature by those skilled in the art.
(§2) The biofilm growth assay was carried out to measure swarming or biofilm spreading on semi-solid agar media in round plates (for example, 100 × 15 mm), also referred to as Petri dishes. For E. coli, the plates contained LB medium with 0.6% agar and 0.5% glucose. P. aeruginosa plates were made with M8 agar supplemented with 0.2% glucose, 100 µM CaCl2, 1 mM MgSO4, and 0.5% Casamino acids. The agar plates of this assay consisted of 0.4% to 0.7% agar (Bacto or Noble agar), although other media may also be used as described in the literature and known to those skilled in the art. Test compounds at the desired concentration were added to the cooled, autoclaved media. Portions of the media were then poured into the plates (20 mL/plate), and the plates allowed to dry at room temperature for approximately 3 to 4 hours. Alternatively, however, plates may be dried in a laminar flow hood for approximately fifteen to twenty minutes. Overnight cultures were grown in a 37°C shaker in LB (E. coli) or TSB (P. aeruginosa). Plates were inoculated by placing 5 µL of the appropriate overnight culture in the centers of the plates. The plates then were incubated overnight at 37°C. The area of the zone of spreading bacteria was then measured and replicates are averaged. Percent inhibition was calculated as 100 × (area without compound - area with compound)/(area without compound). An active compound was considered that which reduces the area of the spreading biofilm compared to negative controls by greater than or equal to 85%. The values shown in Table 1 are the concentrations of compounds (µg/ml) tested in the biofilm growth assay that reduce the area of the spreading biofilm compared to negative controls by greater than or equal to 85% unless noted differently in Table 1. A > ("greater than" symbol) as used in Table 1 is well understood to those skilled in the art as an indication that the listed concentration was not effective at this concentration.
(§3) All of the compounds shown in Tables 2, 3, 4, and 5, below, were prepared semi-synthetically from oleanolic acid, except for Compounds 2 and 3. Compound 2 was prepared from ursolic acid. Compound 3 was prepared from hederagenin, but could also be prepared from an oleanolic acid analog with a hydroxyl at C23 or C24. These compounds were tested in the spreading biofilm assay according to the methods detailed in Example I, above. The values shown in Tables 2, 3, 4, and 5 are the concentrations of compounds tested in the biofilm growth assay that reduce the area of the spreading biofilm compared to negative controls by greater than or equal to 85%. Table 2. Compound 1 and its Analogs and their inhibitory concentrations in the biofilm growth assay as detailed in Example I, above

[2] = tested on: E. coli; assay: as above; type: cell-based; settings: Escherichia coli; Table 3; concentration that reduces the area of the spreading biofilm by >= 85%; read-out: E. coli
Source text: as §1, §2, §3

Structure (SMILES) | IC85 [1] [µg/mL] | IC85 [2] [µg/mL]
CC1(C)CC[C@]2(C(=O)O)CC[C@]3(C)C(=C(c4cncnc4)CC4[C@@]5(C)Cc6c(n[nH]c6N)C(C)(C)[C@@H]5CC[C@]43C)[C@@H]2C1 (stereo partly drawn) [Compound 30, (4aS,6aS,6bR,8aR,13aR,15bS)-12-Amino-2,2,6a,6b,9,9,13a-heptamethyl-15-(pyrimidin-5-yl)-2,3,4,4a,5,6,6a,6b,7,8,8a,9,11,13,13a,13b,14,15b-octadecahydro-1H-chryseno[1,2-f]indazole-4a-carboxylic acid] | 2 (≈ 3.5 µM) | 1 (≈ 1.75 µM)
CC1(C)CC[C@]2(C(=O)O)CC[C@]3(C)C(=C(c4ccc(N)c(F)c4)CC4[C@@]5(C)Cc6c(n[nH]c6N)C(C)(C)C5CC[C@]43C)C2C1 (stereo partly drawn) [Compound 31, (4aS,6aS,6bR,13aR)-12-Amino-15-(4-amino-3-fluorophenyl)-2,2,6a,6b,9,9,13a-heptamethyl-2,3,4,4a,5,6,6a,6b,7,8,8a,9,11,13,13a,13b,14,15b-octadecahydro-1H-chryseno[1,2-f]indazole-4a-carboxylic acid] | 0.5 (≈ 0.829 µM) | 1 (≈ 1.66 µM)
CC1(C)CC[C@]2(C(=O)O)CC[C@]3(C)C(=C(c4ccoc4CN4CCOCC4)CC4[C@@]5(C)Cc6c(n[nH]c6N)C(C)(C)[C@@H]5CC[C@]43C)[C@@H]2C1 (stereo partly drawn) [Compound 32, (4aS,6aS,6bR,8aR,13aR,15bS)-12-Amino-2,2,6a,6b,9,9,13a-heptamethyl-15-(2-(morpholinomethyl)furan-3-yl)-2,3,4,4a,5,6,6a,6b,7,8,8a,9,11,13,13a,13b,14,15b-octadecahydro-1H-chryseno[1,2-f]indazole-4a-carboxylic acid] | 0.5 (≈ 0.759 µM) | 1 (≈ 1.52 µM)
CC1(C)CC[C@]2(C(=O)O)CC[C@]3(C)C(=C(c4c[nH]cc4CN4CCOCC4)CC4[C@@]5(C)Cc6c(n[nH]c6N)C(C)(C)[C@@H]5CC[C@]43C)[C@@H]2C1 (stereo partly drawn) [Compound 33, (4aS,6aS,6bR,8aR,13aR,15bS)-12-Amino-2,2,6a,6b,9,9,13a-heptamethyl-15-(4-(morpholinomethyl)-1H-pyrrol-3-yl)-2,3,4,4a,5,6,6a,6b,7,8,8a,9,11,13,13a,13b,14,15b-octadecahydro-1H-chryseno[1,2-f]indazole-4a-carboxylic acid] | 2 (≈ 3.04 µM) | 4 (≈ 6.08 µM)
CC1(C)CC[C@]2(C(=O)O)CC[C@]3(C)C(=C(c4ccsc4CN4CCOCC4)CC4[C@@]5(C)Cc6c(n[nH]c6N)C(C)(C)C5CC[C@]43C)C2C1 (stereo partly drawn) [Compound 34, (4aS,6aS,6bR,13aR)-12-Amino-2,2,6a,6b,9,9,13a-heptamethyl-15-(2-(morpholinomethyl)thiophen-3-yl)-2,3,4,4a,5,6,6a,6b,7,8,8a,9,11,13,13a,13b,14,15b-octadecahydro-1H-chryseno[1,2-f]indazole-4a-carboxylic acid] | 1 (≈ 1.48 µM) | 1 (≈ 1.48 µM)
CC1(C)CC[C@]2(C(=O)O)CC[C@]3(C)C(=C(c4ccoc4CN4CCNCC4)CC4[C@@]5(C)Cc6c(n[nH]c6N)C(C)(C)[C@@H]5CC[C@]43C)[C@@H]2C1 (stereo partly drawn) [Compound 35, (4aS,6aS,6bR,8aR,13aR,15bS)-12-Amino-2,2,6a,6b,9,9,13a-heptamethyl-15-(2-(piperazin-1-ylmethyl)furan-3-yl)-2,3,4,4a,5,6,6a,6b,7,8,8a,9,11,13,13a,13b,14,15b-octadecahydro-1H-chryseno[1,2-f]indazole-4a-carboxylic acid] | > 1 | 1 (≈ 1.52 µM)
CN1CCN(Cc2occc2C2=C3[C@@H]4CC(C)(C)CC[C@]4(C(=O)O)CC[C@@]3(C)[C@]3(C)CC[C@H]4C(C)(C)c5n[nH]c(N)c5C[C@]4(C)C3C2)CC1 (stereo partly drawn) [Compound 36, (4aS,6aS,6bR,8aR,13aR,15bS)-12-Amino-2,2,6a,6b,9,9,13a-heptamethyl-15-(2-((4-methylpiperazin-1-yl)methyl)furan-3-yl)-2,3,4,4a,5,6,6a,6b,7,8,8a,9,11,13,13a,13b,14,15b-octadecahydro-1H-chryseno[1,2-f]indazole-4a-carboxylic acid] | > 1 | 2 (≈ 2.98 µM)
CC1(C)CC[C@]2(C(=O)O)CC[C@]3(C)C(=C(c4ccoc4CN4CCCC4)CC4[C@@]5(C)Cc6c(n[nH]c6N)C(C)(C)C5CC[C@]43C)C2C1 (stereo partly drawn) [Compound 37, (4aS,6aS,6bR,13aR)-12-Amino-2,2,6a,6b,9,9,13a-heptamethyl-15-(2-(pyrrolidin-1-ylmethyl)furan-3-yl)-2,3,4,4a,5,6,6a,6b,7,8,8a,9,11,13,13a,13b,14,15b-octadecahydro-1H-chryseno[1,2-f]indazole-4a-carboxylic acid] | > 1 | 1 (≈ 1.56 µM)
CC1(C)CC[C@]2(C(=O)O)CC[C@]3(C)C(=C(c4coc(CN5CCCC5)c4)CC4[C@@]5(C)Cc6c(n[nH]c6N)C(C)(C)C5CC[C@]43C)C2C1 (stereo partly drawn) [Compound 38, (4aS,6aS,6bR,13aR)-12-Amino-2,2,6a,6b,9,9,13a-heptamethyl-15-(5-(pyrrolidin-1-ylmethyl)furan-3-yl)-2,3,4,4a,5,6,6a,6b,7,8,8a,9,11,13,13a,13b,14,15b-octadecahydro-1H-chryseno[1,2-f]indazole-4a-carboxylic acid] | 1 (≈ 1.56 µM) | 2 (≈ 3.11 µM)
CC1(C)CC[C@]2(C(=O)O)CC[C@]3(C)C(=C(c4coc(CN5CCNCC5)c4)CC4[C@@]5(C)Cc6c(n[nH]c6N)C(C)(C)C5CC[C@]43C)C2C1 (stereo partly drawn) [Compound 39, (4aS,6aS,6bR,13aR)-12-Amino-2,2,6a,6b,9,9,13a-heptamethyl-15-(5-(piperazin-1-ylmethyl)furan-3-yl)-2,3,4,4a,5,6,6a,6b,7,8,8a,9,11,13,13a,13b,14,15b-octadecahydro-1H-chryseno[1,2-f]indazole-4a-carboxylic acid] | 1 (≈ 1.52 µM) | 2 (≈ 3.04 µM)
CC1(C)CC[C@]2(C(=O)O)CC[C@]3(C)C(=C(c4coc(CN5CCOCC5)c4)CC4[C@@]5(C)Cc6c(n[nH]c6N)C(C)(C)[C@@H]5CC[C@]43C)[C@@H]2C1 (stereo partly drawn) [Compound 40, (4aS,6aS,6bR,8aR,13aR,15bS)-12-Amino-2,2,6a,6b,9,9,13a-heptamethyl-15-(5-(morpholinomethyl)furan-3-yl)-2,3,4,4a,5,6,6a,6b,7,8,8a,9,11,13,13a,13b,14,15b-octadecahydro-1H-chryseno[1,2-f]indazole-4a-carboxylic acid] | 0.5 (≈ 0.759 µM) | 2 (≈ 3.04 µM)
CC1(C)CC[C@]2(C(=O)O)CC[C@]3(C)C(=C(c4ccc(N)nc4)CC4[C@@]5(C)Cc6c(n[nH]c6N)C(C)(C)[C@@H]5CC[C@]43C)[C@@H]2C1 (stereo partly drawn) [Compound 41, (4aS,6aS,6bR,8aR,13aR,15bS)-12-Amino-15-(6-aminopyridin-3-yl)-2,2,6a,6b,9,9,13a-heptamethyl-2,3,4,4a,5,6,6a,6b,7,8,8a,9,11,13,13a,13b,14,15b-octadecahydro-1H-chryseno[1,2-f]indazole-4a-carboxylic acid] | 1 (≈ 1.71 µM) | 2 (≈ 3.41 µM)
COc1ccc(C2=C3[C@@H]4CC(C)(C)CC[C@]4(C(=O)O)CC[C@@]3(C)[C@]3(C)CC[C@H]4C(C)(C)c5n[nH]c(N)c5C[C@]4(C)C3C2)cn1 (stereo partly drawn) [Compound 42, (4aS,6aS,6bR,8aR,13aR,15bS)-12-Amino-15-(6-methoxypyridin-3-yl)-2,2,6a,6b,9,9,13a-heptamethyl-2,3,4,4a,5,6,6a,6b,7,8,8a,9,11,13,13a,13b,14,15b-octadecahydro-1H-chryseno[1,2-f]indazole-4a-carboxylic acid] | 0.25 (≈ 0.416 µM) | 1 (≈ 1.66 µM)
CNc1ccc(C2=C3[C@@H]4CC(C)(C)CC[C@]4(C(=O)O)CC[C@@]3(C)[C@]3(C)CC[C@H]4C(C)(C)c5n[nH]c(N)c5C[C@]4(C)C3C2)cn1 (stereo partly drawn) [Compound 43, (4aS,6aS,6bR,8aR,13aR,15bS)-12-Amino-2,2,6a,6b,9,9,13a-heptamethyl-15-(6-(methylamino)pyridin-3-yl)-2,3,4,4a,5,6,6a,6b,7,8,8a,9,11,13,13a,13b,14,15b-octadecahydro-1H-chryseno[1,2-f]indazole-4a-carboxylic acid] | 1 (≈ 1.67 µM) | 1 (≈ 1.67 µM)
